# Literature values in patent US20160067227A1, “PHARMACEUTICAL COMBINATIONS FOR THE TREATMENT OF METABOLIC DISORDERS” (Boehringer Ingelheim International GmbH, priority 2012, published 2016).
# Conditions: metformin on its own, in the diabetic
smiles,measurement,value
CN(C)C(=N)N=C(N)N [metformin],average improvement in the HbA1c value,1.0-1.5%
